Measurements from patent US6806230B1, “Pyrimidine derivatives and herbicides containing them” (Kumiai Chemical Industry Co., Ltd., priority 1999, dated 2004).

What was measured:
Format in all cases: in vivo
barnyard grass (Ec) [1] = test: Test Example 2: herbicidal effects by upland soil treatment; design: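 0-5 growth inhibition grade; 5 = over 90%; 4 = 70-90%; 3 = 50-70%; 2 = 30-50%; 1 = 10-30%; 0 = under 10%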; conditions: dose 100 g active ingredient per 10 ares, examined on the 21st day after treatment, standards of Table 44
How it was run: (§1)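 Pre-emergence test: barnyard grass and green foxtail sown in upland soil, then soil surface sprayed with wettable-powder formulation at 100 g active ingredient per 10 ares (100 l per 10 ares). Grown in greenhouse; herbicidal effect scored on a rating scale 21 days after treatment.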

green foxtail (Se) = test: as above; conditions: dose 100 g active ingredient per 10 ares, examined on the 21st day after treatment, standards of Table 44;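 also: 0-5 growth inhibition grade; 5 = over 90%; 4 = 70-90%; 3 = 50-70%; 2 = 30-50%; 1 = 10-30%; 0 = under 10%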
How it was run: as §1

barnyard grass (Eo) [2] = test: Test Example 1: herbicidal effects by flooded paddy field treatment; design: herbicidal effects, Eo (barnyard grass):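 0-5 growth inhibition grade; 5 = over 90%; 4 = 70-90%; 3 = 50-70%; 2 = 30-50%; 1 = 10-30%; 0 = under 10%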; conditions: for Herbicidal effect index, Eo: dose 100 gai/10a, examined on 21st day after treatment, index 0-5 per Table 44; for herbicidal effects, Eo (barnyard grass): dose 100 g active ingredient per 10 ares, examined on the 21st day after treatment, standards of Table 44;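 as to Herbicidal effect index, Eo: 0-5 growth inhibition grade; 5 = over 90%; 4 = 70-90%; 3 = 50-70%; 2 = 30-50%; 1 = 10-30%; 0 = under 10%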
How it was run: (§2)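 Dose: 100 g active ingredient per 10 ares as a diluted wettable powder dripped onto 3 cm floodwater, one day after sowing in puddled paddy soil. Scored by a standard rating scale 21 days later following greenhouse growth.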

monochoria (Mo) [3] = test: as above; design: herbicidal effects, Mo (monochoria):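 0-5 growth inhibition grade; 5 = over 90%; 4 = 70-90%; 3 = 50-70%; 2 = 30-50%; 1 = 10-30%; 0 = under 10%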; conditions: for Herbicidal effect index, Mo: dose 100 gai/10a, examined on 21st day after treatment, index 0-5 per Table 44; for herbicidal effects, Mo (monochoria): dose 100 g active ingredient per 10 ares, examined on the 21st day after treatment, standards of Table 44
How it was run: as §2

barnyard grass (Ec) [4] = test: Test Example 3: herbicidal effects by foliage treatment in upland field; design: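 0-5 growth inhibition grade; 5 = over 90%; 4 = 70-90%; 3 = 50-70%; 2 = 30-50%; 1 = 10-30%; 0 = under 10%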; conditions: dose 100 g active ingredient per 10 ares, examined on the 14th day after treatment
How it was run: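 Barnyard grass and green foxtail were grown in upland soil for 2 weeks in a greenhouse. A water-diluted wettable powder was sprayed over the foliage at 100 l per 10 ares, giving 100 g active ingredient per 10 ares. Herbicidal effect was scored on day 14 after treatment.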

barnyard grass (Eo) [5] = test: Test Example 4: selectivity for a crop plant by flooded paddy field treatment; design: scale not given here; conditions: for Eo (herbicidal effect index): barnyard grass, dose 25 gai/10a, 21st day after treatment, index per Table 44; for Eo (herbicidal effects, index): dose 25 g active ingredient per 10 ares, examined on the 21st day after treatment
How it was run: (§3)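 Water-surface application in a greenhouse pot test: 25 g active ingredient per 10 ares, given as a diluted wettable powder one day after flooding, with visual rating of herbicidal effect three weeks post-treatment.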

monochoria (Mo) [6] = test: as above; design: scale not given here; conditions: for Mo (herbicidal effect index): monochoria, dose 25 gai/10a, 21st day after treatment, index per Table 44; for Mo (herbicidal effects, index): dose 25 g active ingredient per 10 ares, examined on the 21st day after treatment
How it was run: as §3

rice (Or) = test: as above; design: scale not given here; conditions: rice transplanted at second leaf stage; for Or (herbicidal effect index on crop): dose 25 gai/10a, 21st day after treatment, index per Table 44; for Or (effect on crop plant rice, index): dose 25 g active ingredient per 10 ares, examined on the 21st day after treatment
How it was run: as §3
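For Herbicidal effect index, Mo in this document: 0-5 growth inhibition grade; 5 = over 90%; 4 = 70-90%; 3 = 50-70%; 2 = 30-50%; 1 = 10-30%; 0 = under 10%.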

Or (effect on crop plant rice, index) (rice (Or)) | SMILES | herbicidal effects, Ec (barnyard grass) (barnyard grass (Ec) [1]) | herbicidal effects, Se (green foxtail) (green foxtail (Se)) | Herbicidal effect index, Eo (barnyard grass (Eo) [2]) | Herbicidal effect index, Mo (monochoria (Mo) [3]) | Ec (herbicidal effects, index) (barnyard grass (Ec) [4]) | herbicidal effects, Eo (barnyard grass) (barnyard grass (Eo) [2]) | herbicidal effects, Mo (monochoria) (monochoria (Mo) [3]) | Eo (herbicidal effect index) (barnyard grass (Eo) [5]) | Mo (herbicidal effect index) (monochoria (Mo) [6]) | Or (herbicidal effect index on crop) (rice (Or)) | Eo (herbicidal effects, index) (barnyard grass (Eo) [5]) | Mo (herbicidal effects, index) (monochoria (Mo) [6])
– | COc1ccc(CC(=O)N(C)C(c2cncnc2C(F)(F)F)C(C)C)cc1 (racemic) [Compound 1-9] | 5 | 5 | 5 | 5 | 5 | – | – | – | – | – | – | –
– | C#CCN(C(=O)Cc1ccc(Cl)cc1)C(c1cncnc1C(F)(F)F)C(C)C (racemic) [1-194] | 5 | 5 | – | – | 5 | 5 | 5 | – | – | – | – | –
– | CCCC(c1cncnc1C(F)(F)F)N(C)C(=O)Cc1ccc(F)cc1 (racemic) [Compound 1-112] | 5 | 5 | 5 | 5 | 4 | – | – | – | – | – | – | –
– | CN(C(=O)Cc1ccc(F)cc1)C(c1cncnc1C(F)(F)Cl)C1CC1 (racemic) [Compound 1-92] | 5 | 5 | – | – | 5 | – | – | – | – | – | – | –
– | Cc1ncncc1C(C(C)C)N(C)C(=O)Cc1ccc(F)cc1 (racemic) [Compound 1-88] | 5 | 5 | 5 | 5 | 4 | – | – | – | – | – | – | –
– | CN(C(=O)Cc1ccccc1)C(c1cncnc1C(F)(F)F)C(C)(C)C (racemic) [1-196] | 5 | 5 | – | – | 5 | 5 | 5 | – | – | – | – | –
– | CCN(C(=O)Cc1ccc(F)cc1)C(c1cncnc1C(F)(F)F)C(C)C (racemic) [Compound 1-27] | 5 | 5 | 5 | 5 | 4 | – | – | – | – | – | – | –
– | CC(C(=O)N(C)C(c1cncnc1C(F)(F)F)C(C)C)c1ccc(F)cc1 (mixture of isomers) [1-198] | 5 | 5 | – | – | 4 | 5 | 5 | – | – | – | – | –
– | CCC(C)C(c1cncnc1C(F)(F)F)N(C)C(=O)Cc1ccccc1 (mixture of isomers) [Compound 1-57] | 5 | 5 | 5 | 5 | 5 | – | – | – | – | – | – | –
– | CC(C)C(c1cncnc1C(F)(F)F)N(C)C(=O)COc1ccc(F)cc1 (racemic) [Compound 1-127] | 5 | 5 | 5 | 5 | 4 | – | – | – | – | – | – | –
– | CC(C)c1ncncc1C(c1ccccc1)N(C)C(=O)Cc1ccc(F)cc1 (racemic) [1-214] | 5 | 5 | – | – | 4 | 5 | 5 | – | – | – | – | –
– | CC(C)C(c1cncnc1C(F)(F)F)N(C)C(=O)Cc1ccc(OC(F)F)cc1 (racemic) [Compound 1-96] | 5 | 5 | 5 | 5 | 5 | – | – | – | – | – | – | –
– | CC(C)C(c1cncnc1C(F)(F)F)N(C)C(=O)Cc1ccc(C(F)(F)F)cc1 (racemic) [Compound 1-24] | 5 | 5 | 5 | 5 | 4 | – | – | – | – | – | – | –
– | CN(C(=O)Cc1ccccc1)C(c1ccccc1)c1cncnc1C(F)(F)F (racemic) [1-186] | 5 | 5 | – | – | 5 | 5 | 5 | – | – | – | – | –
– | CC(C)C(c1cncnc1C(F)(F)F)N(C)C(=O)Cc1ccc(F)cc1 (racemic) [Compound 1-12] | 5 | 5 | 5 | 5 | 5 | – | – | – | – | – | – | –
– | CC(C)C(c1cncnc1C(F)(F)F)N(C)C(=O)Sc1ccccc1 (racemic) [Compound 1-10] | 4 | 4 | 5 | 5 | 4 | – | – | – | – | – | – | –
– | CC(C)C(c1cncnc1C(F)(F)F)N(C)C(=S)Cc1ccc(F)cc1 (racemic) [Compound 1-143] | 5 | 5 | – | – | 4 | 5 | 5 | – | – | – | – | –
– | CCN(C(=O)Cc1ccccc1)C(c1cncnc1C(F)F)C(C)C (racemic) [Compound 1-168] | 5 | 5 | – | – | – | 5 | 5 | 5 | 5 | 1 | – | –
0 | CC(C)C(c1cncnc1C(F)(F)F)N(C)C(=O)Cc1cc(F)ccc1F (racemic) [Compound 1-40] | 5 | 4 | 5 | 5 | – | – | – | – | – | – | 5 | 5
1 | CN(C(=O)Cc1ccccc1)C(c1cncnc1C(F)(F)Cl)C1CC1 (racemic) [Compound 1-91] | 4 | 5 | 5 | 5 | – | – | – | – | – | – | 5 | 5
1 | CCCN(C(=O)Cc1ccccc1)C(c1cncnc1C(F)(F)F)C(C)C (racemic) [Compound 1-63] | 5 | 5 | 5 | 5 | – | – | – | – | – | – | 5 | 5
– | CN(C(=O)Cc1ccc(Cl)cc1)C(c1cccs1)c1cncnc1C(F)(F)F (racemic) [1-200] | 5 | 5 | – | – | – | 5 | 5 | 5 | 5 | 1 | – | –
– | Cc1ccccc1OCC(=O)N(C)C(c1cncnc1C(F)(F)F)C(C)C (racemic) [Compound 1-134] | 5 | 5 | – | – | – | 5 | 5 | 5 | 5 | 0 | – | –
– | CCN(C(=O)Cc1ccc(C)cc1)C(c1cncnc1C(F)F)C(C)C (racemic) [Compound 1-171] | 5 | 4 | – | – | – | 5 | 5 | 5 | 5 | 1 | – | –
– | CC(C)C(c1cncnc1C(F)(F)F)N(C)C(=O)CSc1ccccc1 (racemic) [1-182] | 5 | 5 | – | – | – | 5 | 5 | 5 | 5 | 1 | – | –
– | Cc1ccc(CC(=O)N(C)C(c2cncnc2C)C(C)(C)C)cc1 (racemic) [Compound 1-162] | 5 | 4 | – | – | – | 5 | 5 | 5 | 5 | 0 | – | –
– | CCCN(C(=O)Cc1ccc(F)cc1)C(c1cncnc1C(F)(F)F)C(C)C (racemic) [1-181] | 5 | 5 | – | – | – | 5 | 5 | 5 | 5 | 1 | – | –
